For 1 substance, tmax results are on record in patent US20050063940A1, “Bioadhesive agent” (priority 2002, published 2005).

The nature of the series: Cross-over study of drug A blood levels with 1% Softigen or 1% Labrasol formulation. The arrangement: species or system rabbits. The settings on record: rabbit, in vivo. The protocol: In a cross-over study, 4 rabbits received drug A in a formulation containing 1% Softigen® (Sasol GmbH, Germany) (n=4) and 1% Labrasol® (Gattefosse, France) (n=4) and were sampled for blood samples after 0, 2, 5, 10, 15, 30, 45 and 60 min.

Regarding “macrogol-6-glycerol-caprylocaprate [PEG6-CCG]”, the tmax was 6 min.
